Test: xn = mol fraction of the nth substance listed
Conditions: Liquid, Pycnometric method

CCCCCl [1-chlorobutane] + O=C=O
Conditions | mass density [kg/m3]
327.6 K, 14940 kPa, x1 = 0.0981 | 822
327.6 K, 15140 kPa, x1 = 0.0981 | 825
332.4 K, 9070 kPa, x1 = 0.1488 | 732
332.4 K, 9260 kPa, x1 = 0.1488 | 737
332.4 K, 9420 kPa, x1 = 0.1488 | 740
332.4 K, 9430 kPa, x1 = 0.0981 | 649
332.4 K, 9510 kPa, x1 = 0.0981 | 654
332.4 K, 9560 kPa, x1 = 0.0981 | 657
332.4 K, 9590 kPa, x1 = 0.1488 | 744
332.4 K, 9660 kPa, x1 = 0.0981 | 663
332.4 K, 9750 kPa, x1 = 0.0483 | 421
332.4 K, 9760 kPa, x1 = 0.0981 | 669
332.4 K, 9760 kPa, x1 = 0.1488 | 748
332.4 K, 9800 kPa, x1 = 0.0483 | 426
332.4 K, 9860 kPa, x1 = 0.0483 | 433
332.4 K, 9870 kPa, x1 = 0.0981 | 675
332.4 K, 9910 kPa, x1 = 0.0483 | 441
332.4 K, 9940 kPa, x1 = 0.1488 | 751
332.4 K, 9970 kPa, x1 = 0.0483 | 449
332.4 K, 10000 kPa, x1 = 0.0981 | 682
332.4 K, 10050 kPa, x1 = 0.0483 | 458
332.4 K, 10130 kPa, x1 = 0.0981 | 687
332.4 K, 10130 kPa, x1 = 0.1488 | 755
332.4 K, 10150 kPa, x1 = 0.0483 | 469
332.4 K, 10200 kPa, x1 = 0.0483 | 478
332.4 K, 10280 kPa, x1 = 0.0483 | 487
332.4 K, 10290 kPa, x1 = 0.0981 | 694
332.4 K, 10340 kPa, x1 = 0.1488 | 758
332.4 K, 10390 kPa, x1 = 0.0483 | 497
332.4 K, 10470 kPa, x1 = 0.0981 | 700
332.4 K, 10490 kPa, x1 = 0.0483 | 507
332.4 K, 10570 kPa, x1 = 0.1488 | 762
332.4 K, 10590 kPa, x1 = 0.0483 | 518
332.4 K, 10650 kPa, x1 = 0.0981 | 707
332.4 K, 10700 kPa, x1 = 0.0483 | 529
332.4 K, 10800 kPa, x1 = 0.1488 | 766
332.4 K, 10830 kPa, x1 = 0.0483 | 541
332.4 K, 10850 kPa, x1 = 0.0981 | 713
332.4 K, 10970 kPa, x1 = 0.0483 | 554
332.4 K, 11030 kPa, x1 = 0.1488 | 770
332.4 K, 11080 kPa, x1 = 0.0981 | 720
332.4 K, 11140 kPa, x1 = 0.0483 | 569
332.4 K, 11280 kPa, x1 = 0.1488 | 774
332.4 K, 11330 kPa, x1 = 0.0981 | 727
332.4 K, 11350 kPa, x1 = 0.0483 | 584
332.4 K, 11560 kPa, x1 = 0.0483 | 598
332.4 K, 11570 kPa, x1 = 0.1488 | 778
332.4 K, 11590 kPa, x1 = 0.0981 | 734
332.4 K, 11830 kPa, x1 = 0.0483 | 613
332.4 K, 11840 kPa, x1 = 0.1488 | 782
332.4 K, 11980 kPa, x1 = 0.0981 | 743
332.4 K, 12120 kPa, x1 = 0.0483 | 629
332.4 K, 12300 kPa, x1 = 0.0483 | 637
332.4 K, 12330 kPa, x1 = 0.1488 | 788
332.4 K, 12430 kPa, x1 = 0.0981 | 753
332.4 K, 12530 kPa, x1 = 0.0483 | 648
332.4 K, 12610 kPa, x1 = 0.0483 | 652
332.4 K, 12820 kPa, x1 = 0.1488 | 794
332.4 K, 12960 kPa, x1 = 0.0981 | 763
332.4 K, 13360 kPa, x1 = 0.1488 | 800
332.4 K, 13540 kPa, x1 = 0.0981 | 774
332.4 K, 13940 kPa, x1 = 0.1488 | 806
332.4 K, 14190 kPa, x1 = 0.0981 | 785
332.4 K, 14570 kPa, x1 = 0.1488 | 813
332.4 K, 14840 kPa, x1 = 0.1488 | 816
332.4 K, 14900 kPa, x1 = 0.0981 | 795
332.4 K, 15110 kPa, x1 = 0.0981 | 798
333.3 K, 9630 kPa, x1 = 0.0744 | 545
333.3 K, 9660 kPa, x1 = 0.0744 | 551
333.3 K, 9690 kPa, x1 = 0.0744 | 556
333.3 K, 9740 kPa, x1 = 0.0744 | 563
333.3 K, 9810 kPa, x1 = 0.0744 | 571
333.3 K, 9900 kPa, x1 = 0.0744 | 578
333.3 K, 9980 kPa, x1 = 0.0744 | 586
333.3 K, 10100 kPa, x1 = 0.0744 | 597
333.3 K, 10250 kPa, x1 = 0.0744 | 608
333.3 K, 10410 kPa, x1 = 0.0744 | 620
333.3 K, 10600 kPa, x1 = 0.0744 | 632
333.3 K, 10840 kPa, x1 = 0.0744 | 645
333.3 K, 11110 kPa, x1 = 0.0744 | 658
333.3 K, 11420 kPa, x1 = 0.0744 | 672
333.3 K, 11800 kPa, x1 = 0.0744 | 686
333.3 K, 12260 kPa, x1 = 0.0744 | 701
333.3 K, 12810 kPa, x1 = 0.0744 | 717
333.3 K, 13470 kPa, x1 = 0.0744 | 733
333.3 K, 14290 kPa, x1 = 0.0744 | 750
333.3 K, 14750 kPa, x1 = 0.0744 | 759
333.3 K, 15240 kPa, x1 = 0.0744 | 768
337.4 K, 9620 kPa, x1 = 0.1488 | 705
337.4 K, 9770 kPa, x1 = 0.1488 | 709
337.4 K, 9890 kPa, x1 = 0.0981 | 605
337.4 K, 9930 kPa, x1 = 0.0744 | 509
337.4 K, 9950 kPa, x1 = 0.1488 | 714
337.4 K, 9960 kPa, x1 = 0.0483 | 378
337.4 K, 9960 kPa, x1 = 0.0744 | 513
337.4 K, 9980 kPa, x1 = 0.0981 | 612
337.4 K, 10010 kPa, x1 = 0.0744 | 520
337.4 K, 10040 kPa, x1 = 0.0483 | 384
337.4 K, 10070 kPa, x1 = 0.0981 | 619
337.4 K, 10080 kPa, x1 = 0.0744 | 527
337.4 K, 10090 kPa, x1 = 0.0483 | 390
337.4 K, 10150 kPa, x1 = 0.0981 | 625
337.4 K, 10150 kPa, x1 = 0.1488 | 719
337.4 K, 10160 kPa, x1 = 0.0483 | 396
337.4 K, 10180 kPa, x1 = 0.0744 | 536
337.4 K, 10230 kPa, x1 = 0.0483 | 402
337.4 K, 10250 kPa, x1 = 0.0981 | 632
337.4 K, 10280 kPa, x1 = 0.0744 | 547
337.4 K, 10290 kPa, x1 = 0.0483 | 409
337.4 K, 10360 kPa, x1 = 0.0483 | 415
337.4 K, 10360 kPa, x1 = 0.0981 | 639
337.4 K, 10360 kPa, x1 = 0.1488 | 724
337.4 K, 10420 kPa, x1 = 0.0483 | 422
337.4 K, 10420 kPa, x1 = 0.0744 | 560
337.4 K, 10490 kPa, x1 = 0.0483 | 429
337.4 K, 10500 kPa, x1 = 0.0981 | 647
337.4 K, 10550 kPa, x1 = 0.0744 | 571
337.4 K, 10570 kPa, x1 = 0.0483 | 436
337.4 K, 10580 kPa, x1 = 0.1488 | 729
337.4 K, 10630 kPa, x1 = 0.0981 | 654
337.4 K, 10650 kPa, x1 = 0.0483 | 444
337.4 K, 10700 kPa, x1 = 0.0744 | 583
337.4 K, 10730 kPa, x1 = 0.0483 | 452
337.4 K, 10790 kPa, x1 = 0.0981 | 662
337.4 K, 10820 kPa, x1 = 0.0483 | 459
337.4 K, 10840 kPa, x1 = 0.1488 | 735
337.4 K, 10870 kPa, x1 = 0.0744 | 595
337.4 K, 10900 kPa, x1 = 0.0483 | 468
337.4 K, 10960 kPa, x1 = 0.0981 | 670
337.4 K, 10990 kPa, x1 = 0.0483 | 477
337.4 K, 11060 kPa, x1 = 0.0744 | 607
337.4 K, 11090 kPa, x1 = 0.0483 | 485
337.4 K, 11090 kPa, x1 = 0.1488 | 740
337.4 K, 11170 kPa, x1 = 0.0981 | 678
337.4 K, 11190 kPa, x1 = 0.0483 | 495
337.4 K, 11270 kPa, x1 = 0.0483 | 501
337.4 K, 11270 kPa, x1 = 0.0744 | 620
337.4 K, 11340 kPa, x1 = 0.0483 | 508
337.4 K, 11380 kPa, x1 = 0.0981 | 686
337.4 K, 11380 kPa, x1 = 0.1488 | 746
337.4 K, 11440 kPa, x1 = 0.0483 | 516
337.4 K, 11510 kPa, x1 = 0.0483 | 521
337.4 K, 11520 kPa, x1 = 0.0744 | 634
337.4 K, 11640 kPa, x1 = 0.0981 | 694
337.4 K, 11680 kPa, x1 = 0.1488 | 751
337.4 K, 11830 kPa, x1 = 0.0744 | 648
337.4 K, 11930 kPa, x1 = 0.0981 | 703
337.4 K, 12030 kPa, x1 = 0.1488 | 757
337.4 K, 12200 kPa, x1 = 0.0744 | 663
337.4 K, 12240 kPa, x1 = 0.0981 | 711
337.4 K, 12380 kPa, x1 = 0.1488 | 762
337.4 K, 12580 kPa, x1 = 0.0981 | 721
337.4 K, 12630 kPa, x1 = 0.0744 | 679
337.4 K, 12750 kPa, x1 = 0.1488 | 768
337.4 K, 12950 kPa, x1 = 0.0981 | 729
337.4 K, 13160 kPa, x1 = 0.0744 | 695
337.4 K, 13180 kPa, x1 = 0.1488 | 774
337.4 K, 13380 kPa, x1 = 0.0981 | 739
337.4 K, 13450 kPa, x1 = 0.1488 | 778
337.4 K, 13780 kPa, x1 = 0.1488 | 781
337.4 K, 13800 kPa, x1 = 0.0744 | 713
337.4 K, 14110 kPa, x1 = 0.0981 | 753
337.4 K, 14120 kPa, x1 = 0.1488 | 786
337.4 K, 14480 kPa, x1 = 0.1488 | 790
337.4 K, 14580 kPa, x1 = 0.0744 | 731
337.4 K, 14830 kPa, x1 = 0.1488 | 794
337.4 K, 14970 kPa, x1 = 0.0981 | 768
337.4 K, 15140 kPa, x1 = 0.0744 | 742
337.4 K, 15300 kPa, x1 = 0.0981 | 774
